# From ChEMBL document CHEMBL1201862, “PubChem BioAssay data set” (2004)
#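 Cells were grown in 96-well plates and exposed to each compound for 48 hours at five concentrations; endpoints were interpolated linearly between bracketing concentrations, or set to the highest concentration if not reached. Here, GI50 denotes the concentration required for 50% inhibition of growth.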 Calls of active or inactive are those of the source. Rule as the data show it: active = GI50 up to about 1.1 µM and inactive = higher.
# Assays:
# Assay in all cases: growth of human tumour cells (NCI), 48 h
# PC-3 = system: PC-3
# SR = system: SR
# TK-10 = system: TK-10
# UACC-62 = system: UACC-62
# OVCAR-5 = system: OVCAR-5
# SK-MEL-2 = system: SK-MEL-2
# SNB-19 = system: SNB-19
# MDA-N = system: MDA-N
# SNB-75 = system: SNB-75
# RXF 393 = system: RXF 393
# U-251 = system: U-251
# M14 = system: M14
# CCRF-CEM = system: CCRF-CEM
# Hs-578T = system: Hs-578T
# ACHN = system: ACHN
# COLO 205 = system: COLO 205
# OVCAR-3 = system: OVCAR-3
# SK-OV-3 = system: SK-OV-3
# HOP-92 = system: HOP-92
Compound,GI50 (PC-3),GI50 (SR),GI50 (TK-10),GI50 (UACC-62),GI50 (OVCAR-5),GI50 (SK-MEL-2),GI50 (SNB-19),GI50 (MDA-N),GI50 (SNB-75),GI50 (RXF 393),GI50 (U-251),GI50 (M14),GI50 (CCRF-CEM),GI50 (Hs-578T),GI50 (ACHN),GI50 (COLO 205),GI50 (OVCAR-3),GI50 (SK-OV-3),GI50 (HOP-92)
CCCNC(=S)N/C=C1/C(=O)Oc2ccccc2C1=O,> 100 µM (inactive),> 100 µM (inactive),> 100 µM (inactive),92 µM (inactive),> 100 µM (inactive),75.3 µM (inactive),> 100 µM (inactive),> 100 µM (inactive),33.2 µM (inactive),60.4 µM (inactive),> 100 µM (inactive),> 100 µM (inactive),> 100 µM (inactive),50.4 µM (inactive),94.8 µM (inactive),> 100 µM (inactive),> 100 µM (inactive),42.2 µM (inactive),53 µM (inactive)
Cc1nn(C(=O)c2ccncc2)c2c1C(c1ccccc1[N+](=O)[O-])SC(=N)N2 (stereo not given),> 10 µM (inactive),> 10 µM (inactive),> 10 µM (inactive),> 10 µM (inactive),> 10 µM (inactive),> 10 µM (inactive),> 10 µM (inactive),> 10 µM (inactive),> 10 µM (inactive),> 10 µM (inactive),,> 10 µM (inactive),8.24 µM (inactive),> 10 µM (inactive),> 10 µM (inactive),> 10 µM (inactive),> 10 µM (inactive),,> 10 µM (inactive)
COc1ccc(Cc2nc3cc(C(F)(F)F)ccc3n2C[C@@H]2CCCN3CCCCC23)cc1 (stereo not given in full),10.6 µM (inactive),3.93 µM (inactive),9.1 µM (inactive),5.69 µM (inactive),13.7 µM (inactive),15.6 µM (inactive),13.4 µM (inactive),4.59 µM (inactive),27.4 µM (inactive),5.4 µM (inactive),13.2 µM (inactive),2.72 µM (inactive),11.1 µM (inactive),19.9 µM (inactive),6.75 µM (inactive),5.36 µM (inactive),5.77 µM (inactive),15.1 µM (inactive),5.62 µM (inactive)
CNC(=O)N(CCC#N)CCN(C(=O)N(C)C)c1ccccc1,> 100 µM (inactive),> 100 µM (inactive),> 100 µM (inactive),> 100 µM (inactive),> 100 µM (inactive),> 100 µM (inactive),> 100 µM (inactive),> 100 µM (inactive),> 100 µM (inactive),> 100 µM (inactive),> 100 µM (inactive),> 100 µM (inactive),> 100 µM (inactive),> 100 µM (inactive),> 100 µM (inactive),> 100 µM (inactive),> 100 µM (inactive),> 100 µM (inactive),> 100 µM (inactive)
COC(=O)c1cc2c(cc1C(=O)OC)[C@@]1(C)CCCC(C)(C)C1CC2 (stereo not given in full),14.8 µM (inactive),15.1 µM (inactive),19.5 µM (inactive),12.2 µM (inactive),18.3 µM (inactive),17.1 µM (inactive),23.7 µM (inactive),21.9 µM (inactive),30 µM (inactive),10.1 µM (inactive),18.4 µM (inactive),22.9 µM (inactive),16.7 µM (inactive),17.7 µM (inactive),20.7 µM (inactive),,10.2 µM (inactive),,9.91 µM (inactive)
Cc1ccc(C)c(NC(=O)C(=O)C(c2cnc3ccc([N+](=O)[O-])cc3n2)[N+](=O)[O-])c1 (stereo not given),52.1 µM (inactive),34.4 µM (inactive),27.3 µM (inactive),64.1 µM (inactive),> 100 µM (inactive),> 100 µM (inactive),> 100 µM (inactive),70.6 µM (inactive),81.7 µM (inactive),50.1 µM (inactive),40.8 µM (inactive),56.9 µM (inactive),24.4 µM (inactive),> 100 µM (inactive),26.6 µM (inactive),60.8 µM (inactive),68.1 µM (inactive),32.4 µM (inactive),36.2 µM (inactive)
COc1ccc(C(=O)NC2=C(Cl)C(=O)c3ccccc3C2=O)cc1,1.65 µM (inactive),1.61 µM (inactive),3.22 µM (inactive),0.471 µM (active),2.7 µM (inactive),1.02 µM (active),5.16 µM (inactive),2.75 µM (inactive),2.56 µM (inactive),0.995 µM (active),0.977 µM (active),1.05 µM (active),3.23 µM (inactive),3.08 µM (inactive),0.472 µM (active),1.89 µM (inactive),1.14 µM (inactive),2.23 µM (inactive),1.36 µM (inactive)
CC1(C)CC(=O)C2=C(C1)OC1=C(CC(C)(C)CC1=O)C2c1ccccc1[N+](=O)[O-] (stereo not given),> 100 µM (inactive),> 100 µM (inactive),> 100 µM (inactive),> 100 µM (inactive),> 100 µM (inactive),> 100 µM (inactive),> 100 µM (inactive),> 100 µM (inactive),> 100 µM (inactive),> 100 µM (inactive),> 100 µM (inactive),> 100 µM (inactive),> 100 µM (inactive),> 100 µM (inactive),> 100 µM (inactive),> 100 µM (inactive),> 100 µM (inactive),> 100 µM (inactive),> 100 µM (inactive)
CCOC(=O)CCC(C(=O)OCC)n1nc2ccc(Nc3c(C)[n+]([O-])c4cc(Cl)ccc4[n+]3[O-])cc2n1 (stereo not given),76.7 µM (inactive),10.1 µM (inactive),> 100 µM (inactive),66.1 µM (inactive),> 100 µM (inactive),96.2 µM (inactive),> 100 µM (inactive),98.4 µM (inactive),> 100 µM (inactive),30.8 µM (inactive),> 100 µM (inactive),> 100 µM (inactive),49.3 µM (inactive),59.6 µM (inactive),> 100 µM (inactive),75.7 µM (inactive),> 100 µM (inactive),> 100 µM (inactive),27 µM (inactive)
CN(C)CN1CSC(=S)N(CN(C)C)C1,16.9 µM (inactive),16.8 µM (inactive),> 100 µM (inactive),> 100 µM (inactive),> 100 µM (inactive),33.3 µM (inactive),> 100 µM (inactive),> 100 µM (inactive),58.2 µM (inactive),> 100 µM (inactive),32.3 µM (inactive),> 100 µM (inactive),8.15 µM (inactive),> 100 µM (inactive),> 100 µM (inactive),,> 100 µM (inactive),,> 100 µM (inactive)
Cc1ccc(Cl)c2c1NC(=O)/C2=N\Nc1ccccc1[N+](=O)[O-],27.7 µM (inactive),8.22 µM (inactive),> 100 µM (inactive),31.4 µM (inactive),> 100 µM (inactive),> 100 µM (inactive),68.4 µM (inactive),39.4 µM (inactive),54.5 µM (inactive),> 100 µM (inactive),31.6 µM (inactive),42.6 µM (inactive),24.5 µM (inactive),22.4 µM (inactive),76.7 µM (inactive),46.3 µM (inactive),27.3 µM (inactive),> 100 µM (inactive),42.5 µM (inactive)
c1ccc(NN/N=N/c2ccc(-c3nc4ccccc4[nH]3)cc2)cc1,26.8 µM (inactive),31.8 µM (inactive),64.4 µM (inactive),,> 100 µM (inactive),23.9 µM (inactive),> 100 µM (inactive),29.9 µM (inactive),23.8 µM (inactive),21.3 µM (inactive),40.4 µM (inactive),10.6 µM (inactive),20.7 µM (inactive),29.1 µM (inactive),25.8 µM (inactive),23.1 µM (inactive),15.6 µM (inactive),> 100 µM (inactive),60.7 µM (inactive)
CN(N)/N=N/c1[nH]cnc1C(N)=O,15.3 µM (inactive),0.352 µM (active),7.67 µM (inactive),6.14 µM (inactive),> 89.7 µM (inactive),4.79 µM (inactive),> 100 µM (inactive),13.4 µM (inactive),4.66 µM (inactive),> 100 µM (inactive),> 66.1 µM (inactive),3.01 µM (inactive),2.72 µM (inactive),37.5 µM (inactive),22.3 µM (inactive),17.5 µM (inactive),17.5 µM (inactive),3.33 µM (inactive),17.5 µM (inactive)
CCC(=O)Nc1ccc(NS(=O)(=O)c2ccc(Cl)cc2)cc1,> 100 µM (inactive),89.3 µM (inactive),,99.3 µM (inactive),> 100 µM (inactive),> 100 µM (inactive),> 100 µM (inactive),> 100 µM (inactive),> 100 µM (inactive),> 100 µM (inactive),,> 100 µM (inactive),> 100 µM (inactive),> 100 µM (inactive),> 100 µM (inactive),> 100 µM (inactive),43.5 µM (inactive),> 100 µM (inactive),> 100 µM (inactive)
O=C1Nc2ccccc2Cn2c1cc1oc(-c3ccccc3)cc12,57.3 µM (inactive),> 100 µM (inactive),> 100 µM (inactive),34.1 µM (inactive),62.4 µM (inactive),44.2 µM (inactive),22.5 µM (inactive),> 100 µM (inactive),24.9 µM (inactive),21.4 µM (inactive),16 µM (inactive),,> 100 µM (inactive),10.9 µM (inactive),37.2 µM (inactive),> 100 µM (inactive),19.2 µM (inactive),28 µM (inactive),31.3 µM (inactive)
